In the assay the target is T1, PRKCE (PKC epsilon) (Homo sapiens, UniProt Q02156).
T1 construct: purchased Thermo Fisher Scientific (Life Technologies) SelectScreen
Put plainly: SelectScreen Z'LYTE. The assay is classed as biochemical. In short, it runs like this:
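SelectScreen broad panel; activity (Z'LYTE, Adapta) plus binding formats. ATP: Km app for CSF1R Z'LYTE; 10 for CAMK1 Adapta. Readout = % per kinase.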

SMILES strings stand for the structures.

T1 sequence (Q02156 whole entry): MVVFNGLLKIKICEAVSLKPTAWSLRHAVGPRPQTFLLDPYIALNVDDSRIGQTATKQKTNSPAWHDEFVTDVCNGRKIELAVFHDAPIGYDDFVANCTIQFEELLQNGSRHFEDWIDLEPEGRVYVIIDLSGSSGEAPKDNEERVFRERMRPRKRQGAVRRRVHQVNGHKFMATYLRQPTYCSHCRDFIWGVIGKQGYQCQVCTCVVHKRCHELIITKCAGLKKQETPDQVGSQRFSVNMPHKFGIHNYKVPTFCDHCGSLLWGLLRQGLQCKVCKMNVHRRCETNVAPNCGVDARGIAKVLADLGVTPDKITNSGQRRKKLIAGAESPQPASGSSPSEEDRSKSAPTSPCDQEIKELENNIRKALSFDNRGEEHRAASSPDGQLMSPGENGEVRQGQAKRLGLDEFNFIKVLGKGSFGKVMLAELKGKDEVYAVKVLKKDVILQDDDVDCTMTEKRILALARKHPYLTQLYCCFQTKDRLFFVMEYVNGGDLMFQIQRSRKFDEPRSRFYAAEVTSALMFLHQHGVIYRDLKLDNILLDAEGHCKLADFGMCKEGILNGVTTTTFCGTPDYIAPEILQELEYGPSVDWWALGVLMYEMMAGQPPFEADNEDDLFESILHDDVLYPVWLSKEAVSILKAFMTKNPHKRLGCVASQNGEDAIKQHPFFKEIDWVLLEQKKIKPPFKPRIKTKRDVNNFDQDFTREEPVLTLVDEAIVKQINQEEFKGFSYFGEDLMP

One may read the inhibition as the change of the read-out against control, counted positive when it falls. On to `CN(C(=O)CN1CCOCC1)c1ccc2sc3c(-c4cccc5c(=O)cc(N6CC7CCC(C6)O7)oc45)cccc3c2c1` [NU5455], for which the inhibition at 1 µM is -4.9%.

The values above are taken from article PMC6934184, “Selective DNA-PKcs inhibition extends the therapeutic index of localized radiotherapy and chemotherapy” (The Journal of Clinical Investigation, 2019).
